# Test results published in US8404694B2, “Aurora kinase modulators and method of use” (Amgen Inc., priority 2008, dated 2013).
# Key:
# HeLa cells = assay: HeLa cell 24 hr ploidy assay; type: cell-based; settings: Homo sapiens, 24 hrs treatment, DNA content (ploidy), read-out: 24 h_4N Ploidy EC50—IP (Avg)
# Procedure: HeLa Cell 24 hr Ploidy Assay Protocol
# The purpose of this assay is to evaluate the ability of selected individual compounds to induce Deoxyribonucleic acid (DNA) content (ploidy) in cells thought failed cell division. Cell cycle analysis is a rapid and efficient way to evaluate the status of DNA content (ploidy) of a given cell. HeLa cells (1×10^4 HeLa cells/well) in 100 ul of media (MEM+10% FBS) were plated in 96-well plates (Packard View) and cultured for 24 hrs at 37° C. maintained in a 5% CO2 atmosphere. The following day, cells were treated for 24 hrs with inhibitor compounds (10 pt. Dose ranging from 0.0024-1.25 umol/L). The compounds were serially diluted in DMSO (0.25% final concentration). The cells were fixed (3.7% Formaldehyde and 1% glutaraldehyde) and permeabilized (1×PBS with 1% BSA and 0.2% Triton X-100) in preparation for nuclear staining. The well plates were stained for 45 minutes at RT in the dark using Hoechest 33342 nuclear stain at 0.5 ug·ml (Stock of 10 mg/ml, Invitrogen, CA, Cat # H3570). The nuclear stain was removed by aspiration and the cells were washed with wash buffer. A Cellomics Array Scan Vti plate reader was used to acquire the DNA ploidy data of the cells using Cell Cycle bioapplication. Numbers for each of “valid cell count/well”, “% of 4N cells” and “% of >4Ncells” were calculated with the assistance of an Activity Base 5.1ca software and dose curves were generated using an XLFit software. With XLFit, final EC50 IP and EC50 transit values, as well as the Max and Min, were calculated for each curve. Many of the Examples described herein were tested, and fund to be active compounds. Table I includes related biological data in the 24 h cell-ploidy content assay, which may be interpreted using the activity gauge below: […]
# AuroraB = molecular target: T1, AuroraB (Homo sapiens, UniProt Q96GD4); assay: AuroraB Homogeneous Time Resolved Fluorescent (HTRF) kinase assay; type: biochemical; settings: ATP 23 μM, biotinylated Histone H3 peptide, read-out: AurB_IC50—IP (Avg)
# T1 construct: 20 μL of AuroraB FL His; His
# Procedure: AuroraB-Homogeneous Time Resolved Fluorescent (HTRF) Kinase Assay:
# The AuroraB HTRF assay begins with AuroraB in the presence of ATP phosphorylating the biotinylated peptide Histone H3. The reaction incubates for about 90 min. the reaction is quenched by addition of detection reagents, which stop the reaction by diluting out the enzyme and chelating the metals due to the presence of EDTA. After addition, the assay is incubated for about 60 min to allow detection reagents to equilibrate.
# The AuroraB HTRF assay comprises 1 μL of compound in 100% DMSO, 20 μL of ATP and biotinylated Histone H3, and 20 μL of AuroraB FL His for a final volume of 41 μL. The final concentration of Histone H3 is 0.1 μM. The final concentration of ATP is 23 μM (Km(app)=23 μM+/−2.6) and the final concentration of AuroraB is 400 pM. Buffer conditions are as follows: 50 mM HEPES pH 7.5, 5 mM NaCl, 0.5 mM MgCl, 0.5 mM MnCl, 2 mM DTT, 0.05% BSA.
# (§1) The assay is quenched and stopped with 160 μL of detection reagent. Detection reagents are as follows: Buffer made of 50 mM Tris, pH 7.5, 100 mM NaCl, 3 mM EDTA, 0.05% BSA, 0.1% Tween20. Added to this buffer prior to reading is Steptavidin allophycocyanin (SA-APC) at a final conc in the assay of 0.001 mg/mL, and europilated anti-phosphoHistoneH3 Ab (Eu-anti-His H3) at a final conc of 0.064 nM.
# (§2) The assay plate is read in either a Discovery or a RubyStar. The eu-anti-His H3 is excited at 320 nm and emits at 615 nm to excite the SA-APC which in turn emits at 655 nm. The ratio of SA-APC at 655 nm (excited due to close proximity to the Eu-anti-His H3 because of phosphorylation of the peptide) to free Eu-anti-His H3 at 615 nm will give substrate phosphorylation.
# (§3) Many of the Examples described herein were tested, and found to be active compounds. Table I includes related biological data, which may be interpreted using the activity gauge below: […]
# AuroraA-TPX2 = molecular target: T2, AuroraA-TPX2 (Homo sapiens, UniProt O14965); assay: AuroraA-TPX2 Homogeneous Time Resolved Fluorescent (HTRF) kinase assay; type: biochemical; settings: ATP about 1 μM, biotinylated PLK peptide, read-out: AurA_IC50—IP (Avg)
# T2 construct: 20 μL of AuroraA-TPX2 KD GST; GST
# T2 sequence (O14965 133-383 limits assumed): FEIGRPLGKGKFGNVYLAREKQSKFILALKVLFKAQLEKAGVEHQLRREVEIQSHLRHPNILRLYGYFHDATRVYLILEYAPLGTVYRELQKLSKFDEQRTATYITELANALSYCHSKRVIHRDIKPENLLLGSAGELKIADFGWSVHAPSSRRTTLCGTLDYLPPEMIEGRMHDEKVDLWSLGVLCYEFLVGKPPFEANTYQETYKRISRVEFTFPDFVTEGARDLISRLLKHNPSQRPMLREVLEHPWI
# T2 sequence (Q9ULW0 1-747 partner): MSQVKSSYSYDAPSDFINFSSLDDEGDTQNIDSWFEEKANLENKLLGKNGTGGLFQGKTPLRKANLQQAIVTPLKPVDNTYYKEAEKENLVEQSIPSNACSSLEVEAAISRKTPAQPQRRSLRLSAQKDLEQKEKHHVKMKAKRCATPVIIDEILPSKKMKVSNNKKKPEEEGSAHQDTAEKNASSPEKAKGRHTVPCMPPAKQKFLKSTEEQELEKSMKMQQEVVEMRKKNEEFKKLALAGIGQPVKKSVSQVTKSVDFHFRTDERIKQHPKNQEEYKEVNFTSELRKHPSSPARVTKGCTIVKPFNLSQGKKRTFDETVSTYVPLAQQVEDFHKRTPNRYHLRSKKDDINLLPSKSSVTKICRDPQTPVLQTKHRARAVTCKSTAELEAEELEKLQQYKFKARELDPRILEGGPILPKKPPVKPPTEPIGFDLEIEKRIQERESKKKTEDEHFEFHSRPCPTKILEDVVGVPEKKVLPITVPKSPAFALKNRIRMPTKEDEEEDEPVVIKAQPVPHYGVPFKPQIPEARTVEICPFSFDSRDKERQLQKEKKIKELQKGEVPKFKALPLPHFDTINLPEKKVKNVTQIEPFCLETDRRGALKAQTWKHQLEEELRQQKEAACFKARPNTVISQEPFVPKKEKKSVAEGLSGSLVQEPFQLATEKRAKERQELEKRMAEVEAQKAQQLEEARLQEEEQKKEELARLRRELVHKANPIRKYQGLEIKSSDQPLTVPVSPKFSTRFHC
# Procedure: AuroraA-TPX2-Homogeneous Time Resolved Fluorescent (HTRF) Kinase Assay:
# The Aurora-A HTRF assay begins with Aurora-A in the presence of ATP phosphorylating the biotinylated peptide PLK. The reaction incubates for about 120 min. Detection reagents are added to quench the reaction. These agents stop the reaction by diluting out the enzyme and chelating the metals due to the presence of EDTA. After addition, the assay is incubated overnight to allow the detection reagents to equilibrate.
# The AuroraA HTRF assay comprises 1 μL of compound in 100% DMSO, 20 μL of ATP and biotinylated PLK, and 20 μL of AuroraA-TPX2 KD GST for a final volume of about 41 μL. The final concentration of PLK is about 1 μM. The final concentration of ATP is about 1 μM (Km(app)=1 μM+/−0.1) and the final concentration of AuroraA is about 5 nM. Buffer conditions are as follows: 60 mM HEPES pH 7.5, 25 mM NaCl, 10 mM MgCl, 2 mM DTT, 0.05% BSA.
# as §1, with “0.0005” for “0.001”, “anti-phosphoPLK” for “anti-phosphoHistoneH3”, “(Eu-anti-PLK)” for “(Eu-anti-His H3)”, “0.02” for “0.064”
# as §2, with “eu-anti-PLK” for “eu-anti-His H3”, “Eu-anti-PLK” for “Eu-anti-His H3”
# as §3
# T1 sequence (Q96GD4 whole entry): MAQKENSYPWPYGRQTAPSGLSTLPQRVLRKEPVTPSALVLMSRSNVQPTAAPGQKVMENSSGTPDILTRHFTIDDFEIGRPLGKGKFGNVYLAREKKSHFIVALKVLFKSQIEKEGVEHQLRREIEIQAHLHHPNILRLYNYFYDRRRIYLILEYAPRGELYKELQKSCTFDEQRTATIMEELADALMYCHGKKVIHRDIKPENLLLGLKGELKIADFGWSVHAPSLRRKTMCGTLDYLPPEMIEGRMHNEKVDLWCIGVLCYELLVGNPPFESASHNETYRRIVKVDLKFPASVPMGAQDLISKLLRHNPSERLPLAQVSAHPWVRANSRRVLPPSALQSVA
EC50 (HeLa cells),IC50 (AuroraB),IC50 (AuroraA-TPX2),SMILES
100 to 500 nM,< 100 nM,> 2500 nM,"Clc1ccn2ncnc(Sc3ccc(Nc4nnc(-c5ccccc5)c5ccccc45)cc3)c12 [Example 29, N-(4-((5-chloropyrrolo[2,1-f][1,2,4]triazin-4-yl)thio)phenyl)-4-phenyl-1-phthalazinamine]"
< 100 nM,< 100 nM,100 to 500 nM,"COCCOc1cc2nccc(Sc3ccc(Nc4nnc(-c5ccccc5)c5ccccc45)cc3)n2n1 [Example 27, N-(4-((2-((2-(methyloxy)ethyl)oxy)pyrazolo[1,5-a]pyrimidin-7-yl)thio)phenyl)-4-phenyl-1-phthalazinamine]"
< 100 nM,< 100 nM,< 100 nM,"COCCOc1cc2nccc(Sc3ccc(Nc4nnc(-c5cc(C)cs5)c5ccccc45)cc3)n2n1 [Example 28, N-(4-((2-((2-(methyloxy)ethyl)oxy)pyrazolo[1,5-a]pyrimidin-7-yl)thio)phenyl)-4-(4-methyl-2-thienyl)-1-phthalazinamine]"
100 to 500 nM,< 100 nM,500 to 2500 nM,"Cc1csc(-c2nnc(Nc3ccc(Sc4ncnn5cccc45)cc3)c3ccccc23)c1 [Example 26, 4-(4-methyl-2-thienyl)-N-(4-(pyrrolo[2,1-f][1,2,4]triazin-4-ylthio)phenyl)-1-phthalazinamine]"

# The remaining lines, values behind:
SMILES,EC50 (HeLa cells),IC50 (AuroraB),IC50 (AuroraA-TPX2)
"Clc1ccc(-c2nnc(Nc3ccc(Sc4ccnc5ccnn45)cc3)c3ccccc23)nc1 [Example 20, 4-(5-chloro-2-pyridinyl)-N-(4-(pyrazolo[1,5-a]pyrimidin-7-ylthio)phenyl)-1-phthalazinamine]",< 100 nM,< 100 nM,< 100 nM
"c1ccc(-c2nnc(Nc3ccc(Sc4ccnc5cc(C6CC6)nn45)cc3)c3ccccc23)cc1 [Example 22, N-(4-((2-cyclopropylpyrazolo[1,5-a]pyrimidin-7-yl)thio)phenyl)-4-phenyl-1-phthalazinamine]",< 100 nM,< 100 nM,100 to 500 nM
"Clc1ccc(-c2nnc(Nc3ccc(Sc4ncnn5cccc45)cc3)c3ccccc23)cc1 [Example 25, 4-(4-chlorophenyl)-N-(4-(pyrrolo[2,1-f][1,2,4]triazin-4-ylthio)phenyl)-1-phthalazinamine]",100 to 500 nM,< 100 nM,> 2500 nM
"C=CCOc1cc2nccc(Sc3ccc(Nc4nnc(-c5ccc(Cl)cc5)c5ccccc45)cc3)n2n1 [Example 4, N-(4-(2-(allyloxy)pyrazolo[1,5-a]pyrimidin-7-ylthio)phenyl)-4-(4-chlorophenyl)phthalazin-1-amine]",100 to 500 nM,,
"Clc1ccc(-c2nnc(Nc3ccc(Sc4ncnn5ccc(Cl)c45)cc3)c3ccccc23)cc1 [Example 7, 4-(4-Chlorophenyl)-N-(4-(5-chloropyrrolo[1,2-f][1,2,4]triazin-4-ylthio)phenyl)phthalazin-1-amine]",100 to 500 nM,< 100 nM,> 2500 nM
"Oc1cc2nccc(Sc3ccc(Nc4nnc(-c5ccc(Cl)cc5)c5ccccc45)cc3)n2n1 [Example 5, 7-(4-(4-(4-Chlorophenyl)phthalazin-1-ylamino)phenylthio)pyrazolo[1,5-a]pyrimidin-2-ol]",100 to 500 nM,< 100 nM,< 100 nM
"Clc1ccc(-c2nnc(Nc3ccc(Oc4ncnn5cccc45)cc3)c3ccccc23)cc1 [Example 3, 4-(4-Chlorophenyl)-N-(4-(pyrrolo[2,1-f][1,2,4]triazin-4-yloxy)phenyl)-1-phthalazinamine]",500 to 2500 nM,< 100 nM,500 to 2500 nM
"COCCOc1cc2nccc(Sc3ccc(Nc4nnc(-c5ccc(Cl)cc5)c5ccccc45)cc3)n2n1 [Example 6, 4-(4-Chlorophenyl)-N-(4-(2-(2-methoxyethoxy)pyrazolo[1,5-a]pyrimidin-7-ylthio)phenyl)phthalazin-1-amine]",< 100 nM,< 100 nM,< 100 nM
"Clc1ccc(-c2nnc(Nc3ccc(Oc4ccnn5cccc45)cc3)c3ccccc23)cc1 [Example 2, 4-(4-Chlorophenyl)-N-(4-(pyrrolo[1,2-b]pyridazin-4-yloxy)phenyl)-1-phthalazinamine]",100 to 500 nM,< 100 nM,100 to 500 nM
